Results as given in patent US6822120B2, “Sulfone liver X-receptor modulators” (Pharmacia Corporation, priority 2002, dated 2004).

Row | SMILES | melting point [°C]
1 | Cc1ccc(S(=O)(=O)Cc2ccc(C(O)(C(F)(F)F)C(F)(F)F)cc2)cc1 [Example 2, 1,1,1,3,3,3-Hexafluoro-2-(4-{[(4-methylphenyl)sulfonyl]methyl}phenyl)propan-2-ol] | 129
2 | O=S(=O)(Cc1ccc(C(O)(C(F)(F)F)C(F)(F)F)cc1)c1ccc2ccccc2c1 [Example 3, 1,1,1,3,3,3-Hexafluoro-2-{4-[(2-naphthylsulfonyl)methyl]phenyl}propan-2-ol] | 148
3 | O=S(=O)(Cc1ccc(C(O)(C(F)(F)F)C(F)(F)F)cc1)c1ccc(Br)cc1 [Example 4, 2-(4-{[(4-Bromophenyl)sulfonyl]methyl}phenyl)-1,1,1,3,3,3-hexafluoropropan-2-ol] | 126
4 | O=S(=O)(Cc1ccc(C(O)(C(F)(F)F)C(F)(F)F)cc1)c1ccccc1Br [Example 5, 2-(4-{[(2-Bromophenyl)sulfonyl]methyl}phenyl)-1,1,1,3,3,3-hexafluoropropan-2-ol] | 124
5 | O=S(=O)(Cc1ccc(C(O)(C(F)(F)F)C(F)(F)F)cc1)c1cccc(Br)c1 [Example 6, 2-(4-{[(3-Bromophenyl)sulfonyl]methyl}phenyl)-1,1,1,3,3,3-hexafluoropropan-2-ol] | 121
6 | O=S(=O)(Cc1ccc(C(O)(C(F)(F)F)C(F)(F)F)cc1)c1ccc(Cl)cc1 [Example 7, 2-(4-{[(4-Chlorophenyl)sulfonyl]methyl}phenyl)-1,1,1,3,3,3-hexafluoropropan-2-ol] | 112
7 | CC(c1ccc(C(O)(C(F)(F)F)C(F)(F)F)cc1)S(=O)(=O)c1ccccc1 (stereo not drawn) [Example 8, 1,1,1,3,3,3-Hexafluoro-2-{4-[1-(phenylsulfonyl)ethyl]phenyl}propan-2-ol] | 136
8 | O=S(=O)(c1ccccc1)C(Cc1ccccc1)c1ccc(C(O)(C(F)(F)F)C(F)(F)F)cc1 (stereo not drawn) [Example 9, 1,1,1,3,3,3-Hexafluoro-2-{4-[2-phenyl-1-(phenylsulfonyl)ethyl]phenyl}propan-2-ol] | 157
9 | CC(C)(C)C(=O)C(c1ccc(C(O)(C(F)(F)F)C(F)(F)F)cc1)S(=O)(=O)c1ccccc1 (stereo not drawn) [Example 11, 3,3-Dimethyl-1-(phenylsulfonyl)-1-{4-[2,2,2-trifluoro-1-hydroxy-1-(trifluoromethyl) -ethyl]phenyl}butan-2-one] | 172
10 | C=CCC(c1ccc(C(O)(C(F)(F)F)C(F)(F)F)cc1)S(=O)(=O)c1ccccc1 (stereo not drawn) [Example 14, 1,1,1,3,3,3-Hexafluoro-2-{4-[1-(phenylsulfonyl)but-3-enyl]phenyl}propan-2-ol] | 148
11 | CCC(c1ccc(C(O)(C(F)(F)F)C(F)(F)F)cc1)S(=O)(=O)c1ccccc1 (stereo not drawn) [Example 15, 1,1,1,3,3,3-Hexafluoro-2-{4-[1-(phenylsulfonyl)propyl]phenyl}propan-2-ol] | 148
12 | O=S(=O)(c1ccccc1)C(CC(F)(F)F)c1ccc(C(O)(C(F)(F)F)C(F)(F)F)cc1 (stereo not drawn) [Example 16, 1,1,1,3,3,3-Hexafluoro-2-{4-[3,3,3-trifluoro-1-(phenylsulfonyl)propyl]phenyl}propan-2-ol] | 151
13 | Cc1ccc(CC(c2ccc(C(O)(C(F)(F)F)C(F)(F)F)cc2)S(=O)(=O)c2ccccc2)cc1 (stereo not drawn) [Example 17, 1,1,1,3,3,3-Hexafluoro-2-{4-[2-(4-methylphenyl)-1-(phenylsulfonyl)ethyl]phenyl}propan-2-ol] | 159
14 | O=S(=O)(c1ccccc1)C(Cc1ccc(-c2ccccc2)cc1)c1ccc(C(O)(C(F)(F)F)C(F)(F)F)cc1 (stereo not drawn) [Example 18, 2-{4-[2-(1,1′-Biphenyl-4-yl)-1-(phenylsulfonyl)ethyl]phenyl}-1,1,1,3,3,3-hexafluoropropan-2-ol] | 192
15 | CC(C)(c1ccc(C(O)(C(F)(F)F)C(F)(F)F)cc1)S(=O)(=O)c1ccccc1 [Example 19, 1,1,1,3,3,3-Hexafluoro-2-{4-[1-methyl-1-(phenylsulfonyl)ethyl]phenyl}propan-2-ol] | 185
